This note sets out measurements from patent US8686048B2, “Immunomodulator and anti-inflammatory compounds” (Rhizen Pharmaceuticals SA, priority 2010, dated 2014).

The target in one series is T1, h-DHODH (Homo sapiens, UniProt Q02127).
T1 construct: endogenous in cells; host or cells: U937 cells (membrane fraction, solubilised with 1% octyl glucoside)
Nature of the series: Dihydro-orotate dehydrogenase inhibition assay (U937 membrane preparations, DCIP reduction). The settings on record: U937 membrane preparation. The series is classed as biochemical. The essentials: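 Detergent (1% octyl glucoside) extract of U937 cell membranes; dihydro-orotate-driven DCIP reduction followed as absorbance change at 600 nm after 4 h at 37° C. IC50 derived from percent inhibition of […].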

Another series concerns IL-17. Nature of the series: Inhibition of IL-17 release from mouse splenocytes (PMA + ionomycin, ELISA). The series is classed as cell-based, Balb/c mice. The settings on record: Splenocyte, 3 h. In outline: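 Balb/c splenocytes (1×10^6 cells/ml, RPMI) were pretreated with inhibitor for 15 min, then stimulated with 10 ng/ml PMA plus 1 μM ionomycin. Supernatant IL-17 was measured by ELISA after 3 h. IC50 was derived from percent inhibition relative to control.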

Series [1] is described as follows: Single dose oral hepatotoxicity assay. The settings on record: serum, 24 hr after 100 mg/kg po single dose, mice. The series is classed as in vivo, BALB/cJ mice. The procedure: 5. Single Dose Oral Hepatotoxicity Assay:
BALB/cJ (n=4 or 5/sex) mice aged 8 to 10 weeks, with weights ranging from 18 to 25 g were used. They were housed under conditions of controlled temperature and humidity and a 12-h light/dark cycle. They were given continuous access to bottled spring water and fed a standard chow at ad libitum. The mice were allowed to acclimate for 1 week before use. On the day of experiment mice were fasted overnight for 12 h and administered with test item formulation (100 mg/kg·b·wt/po) or vehicle (10 ml/kg·b·wt/po) by oral route and food was given 4 hr after test item administration. After 24 hr post administration blood samples were collected from orbital sinus of all the animals and serum was separated to assess the hepatotoxicity. Biochemical evaluation of liver function was determined by measuring serum enzyme activities of alanine aminotransferase (ALT) and aspartate aminotransferase (AST) using commercially available kits from Sigma (St. Louis, Mo.).

The test system of the next series is IL17. Nature of the series: Inhibition of PHA induced cytokine (IL17) release in PBMC. The settings on record: Homo sapiens, 48 h, ELISA. Type of series: cell-based. The procedure: b. Inhibition of PHA Induced Cytokine (IL17) Release:
(§1) PBMC from freshly collected HWB were isolated by density gradient using Histopaque and seeded in a 96-well plate. Wells were incubated with desired concentrations of the inhibitor for 15 min. Proliferation was induced by the addition of 2 μM Phytohemagglutinin at 37° C. in an atmosphere containing 95% CO2. Supernatant was collected after 48 h for estimation of cytokines by ELISA. Data were analyzed using GraphPad Prism. Percent inhibition and IC50 values for each compound were determined based on the percent inhibition due to the test compound compared to the control.

A further series has as its system IL-17 secreting cells. The experiment in a line: Determination of IL-17 producing cells by flow cytometry in PBMC. The following applies: human PBMC, Cytostim, 4 h, read-out: inhibition of IL17 (IL-17 secreting cells normalized to total CD4+ cells). Type of series: cell-based. The protocol:
3. Determination of IL-17 Producing Cells by Flow Cytometry:
PBMC isolated from human blood were stimulated and treated with desired concentrations of the test compounds prior to stimulation with Cytostim (Milteny Biotech, Germany). After 4 h, IL-17 secreting cells were stained using the IL-17 secretion assay kit as per the manufacturer's instruction and normalized to total CD4+ cells within the PBMC population. Data were analyzed using Graph pad prism.

The test system of series [2] is CD4+ cell. The experiment in a line: Inhibition of PHA induced CD4+ cell proliferation in PBMC. The settings on record: Homo sapiens, isolated PBMC, 48 h, flow cytometry. The series is classed as cell-based. The procedure:
d. Inhibition of PHA Induced CD4+ Cell Proliferation in PBMC:
Isolated PBMC were treated with desired concentration of inhibitor and induced with 5 μM PHA. % CD4+ cell viability was determined after 48 h by flow cytometry. Data were analyzed using GraphPad Prism. IC50 values for each compound were determined based on the percent inhibition due to the test compound compared to the control.

The subject of the next series is PBMC. Nature of the series: Inhibition of PHA induced PBMC proliferation (MTT). The series is classed as cell-based. The following applies: Homo sapiens, 48 h. The procedure: a. Inhibition of PHA Induced PBMC Proliferation:
as §1, with “HWB was” for “HWB were”, “[…]. Viability” for “CO2. Supernatant”, “was determined” for “was collected”, “h using an 3-(4,5-Dimethylthiazol-2-yl)-2,5-diphenyltetrazolium bromide (MTT) assay.” for “h for estimation of cytokines by ELISA.”, “Prism. percent” for “Prism. Percent”, “inhibition and/or GI50” for “inhibition and IC50”

The subject of series [3] is CD4+ cell. Nature of the series: Inhibition of PHA induced CD4+ cell proliferation in human whole blood. The series is classed as cell-based. The settings on record: 48 h, flow cytometry. The procedure: c. Inhibition of PHA Induced CD4+ Cell Proliferation in Human Whole Blood:
HWB or were treated with desired concentration of inhibitor and induced with 5 μM PHA. % CD4+ cell viability was determined after 48 h by flow cytometry. Data were analyzed using GraphPad Prism. Percent inhibition and IC50 values for each compound were determined based on the percent inhibition due to the test compound compared to the control.

T1 sequence (Q02127 whole entry): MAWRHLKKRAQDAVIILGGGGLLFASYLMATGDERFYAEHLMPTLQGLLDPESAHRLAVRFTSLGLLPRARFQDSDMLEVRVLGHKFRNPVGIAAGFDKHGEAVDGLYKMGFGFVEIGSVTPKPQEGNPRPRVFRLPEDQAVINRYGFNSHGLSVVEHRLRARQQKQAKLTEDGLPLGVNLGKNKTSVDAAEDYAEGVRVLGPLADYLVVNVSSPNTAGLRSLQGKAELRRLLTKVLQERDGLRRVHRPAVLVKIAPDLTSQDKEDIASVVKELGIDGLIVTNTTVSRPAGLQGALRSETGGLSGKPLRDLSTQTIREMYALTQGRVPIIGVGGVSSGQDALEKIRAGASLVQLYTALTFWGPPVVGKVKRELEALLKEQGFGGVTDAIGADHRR

`CCOc1cccc(-c2cc(F)c(NC(=O)c3ccccc3C(=O)O)c(F)c2)c1` [Example 5, 2-(3′-Ethoxy-3,5-difluorobiphenyl-4-ylcarbamoyl)benzoic acid] showed a melting point of 136 to 141 °C. For the same compound, on h-DHODH, testing at 1 µM gave an inhibition of 85.7% and the IC50 was determined as 49.8 nM. Also, the inhibition at 10 µM with IL-17 came out at 30.8%. In [1], this compound returned an ALT of 113.6 U/L and an AST of 137.8 U/L. Moreover, the inhibition at 10 µM in the series with IL17 was over 50%.

With `CCCCOc1cccc(-c2cc(F)c(NC(=O)c3ccccc3C(=O)O)c(Cl)c2)c1` [Example 29, 2-(3′-butoxy-3-chloro-5-fluorobiphenyl-4-ylcarbamoyl)benzoic acid], the melting point was 128 to 130 °C. Moreover, the inhibition at 1 µM with IL-17 secreting cells worked out at 43.6%. Besides, on h-DHODH, the inhibition at 1 µM amounted to 94% and the IC50 stood at 7.93 nM. Further, the inhibition at 1 µM in the series with CD4+ cell [2] was over 90%. Also, in the series on IL-17, the inhibition at 10 µM turned out to be 46.1% and the IC50 worked out at 18800 nM. In series [1], this compound returned an ALT of 67.9 U/L and an AST of 114.4 U/L. The compound also registered an inhibition at 10 µM with PBMC of over 70%. The compound also yielded an inhibition at 1 µM in the series on CD4+ cell [3] of over 65%.
